Measured values: publication PMC9218946, “Identification of a Subtype-Selective Allosteric Inhibitor of GluN1/GluN3 NMDA Receptors” (Frontiers in Pharmacology, 2022)
Structures can show the parent of a compound that is named as a salt.

Key:
GluN1/GluN3A receptors [1] = molecular target: T1, GluN1/GluN3A receptors (UniProt Q05586+Q9R1M7); experiment: High-throughput Fluo-4 calcium assay (FDSS/μCell) in HEK-293 cells stably expressing GluN1/GluN3A; format: cell-based, human GluN1-1a, rat GluN3A; parameters: expressed in transfected cells; conditions: primary and secondary screening
Description: The HEK-293 cells stably expressing GluN1/GluN3A receptors were seeded at a density of 10,000 cells/well in the 384-well plates, and expression was induced with 1 μg/ml doxycycline for 24–28 h. Then the culture medium was removed, Fluo-4 (Invitrogen) was loaded and the cells were incubated in the 37°C incubator away from light for 1 h ([Gee et al., 2000]). The plates were gently washed twice with Ca^2+-free buffer and then incubated with one of the 2560 compounds (from the Chinese National Compound Library) or DMSO (1% and 0.33%) for 20 min. A fixed concentration of 30 μM and dual concentrations of 10 μM and 30 μM were applied in the primary and secondary screening, respectively. Two replicates were set up for each condition. […] A FDSS/μCell platform (Hamamatsu) was used to measure the fluorescence signals. The excitation (Ex) and emission (Em) wavelengths were set to 480 and 540 nm, respectively. The inhibitory effects of tested compounds were compared by the ratios of fluorescence (F) with (F drug) and without (F control) the compounds. The F control value in these assays represented the value of basal Fluo-4 fluorescence plus glycine-stimulated fluorescence, and the F drug indicated the total Fluo-4 fluorescence after treatment of the drugs. Both the F drug and F control values were taken at the peak. The Ca^2+-free buffer used to dilute Fluo-4 and wash cell-plates contained (in mM): 140 NaCl, 5 KCl, 1 MgCl2, 10 glucose, 10 HEPES, and 0.5 EGTA. The pH was adjusted to 7.2 using NaOH. To dilute the compounds, 2 mM of free Ca^2+ was added in addition to the other components of the buffer.

GluN1/GluN3A receptors [2] = molecular target: T1, GluN1/GluN3A receptors; experiment: Whole-cell patch-clamp recording on GluN1/GluN3A Flp-in T-REx 293 stable cell lines; format: cell-based, human GluN1-1a, rat GluN3A; parameters: expressed in transfected cells; conditions: for remaining activity at 3 µM: Flp-In-T-REx-293, read-out: I drug/I control; for I drug/I control: 3 μM compound, whole-cell patch-clamp, mean ± SEM, drug application order as in FDSS/μCell Ca2+ imaging (CGP-78608, then glycine)
Description: To establish GluN1/GluN3A stable cell lines, the human GluN1-1a (GenBank: NP_015566.1) and the rat GluN3A (GenBank: NP_612555.1) genes were subcloned into the pcDNA5-FRT-To and pcDNA3.1 vectors, respectively. An EGFP tag was added to the C-terminus of GluN1 or GluN3A using a T2A linker for identification of transfected cells during transient transfection. Point mutations were introduced by site-directed mutagenesis using PrimeSTAR (Takara). The human GluN2A (GenBank: NP_000824.1) gene was subcloned into the pcDNA3.1 vector. The chimeras GluN3A^670-673 MWPL/LEPF and GluN2A^550-553 LEPF/MWPL were generated using In-Fusion HD Cloning kits (Takara). All constructs were confirmed by DNA sequencing (Beijing Genomics Institute).
The Flp-in T-Rex 293 cell lines (Invitrogen), stably expressing GluN1/GluN3A were grown in DMEM basal medium (Gibco) supplemented with 10% fetal bovine serum (FBS, Invitrogen), 15 μg/ml blasticidin S (Invitrogen), 50 μg/ml hygromycin B (Invitrogen) and 500 μg/ml G418 (Gibco). Expression in cell lines was induced with 1 μg/ml doxycycline (Invitrogen) 24–28 h prior to the experiments. Chinese hamster ovary (CHO) cells were grown in DMEM-F12 basal medium (Gibco) supplemented with 10% FBS. In the study on the action sites of WZB117, all whole-cell patch-clamp recordings were performed on CHO cells. The transfections were carried out using Lipofectamine 3000 transfection reagent (Thermo Fisher) according to the manufacturer’s instructions. All cells mentioned above were cultured in a 5% CO2 incubator at 37°C and passaged every other day at a ratio of 1:3.
Whole-cell patch-clamp recordings were performed at room temperature (22–25°C) using an EPC-10 amplifier and Patch Master Software (HEKA). Pipettes were pulled from borosilicate glass capillaries (World Precision Instruments), and the resistances were 3–5 MΩ when filled with the intracellular solution. The extracellular solution contained (in mM): 140 NaCl, 2.8 KCl, 1 CaCl2, 10 HEPES and 20 sucrose (290–300 mOsm), pH adjusted to 7.3 using NaOH. The pipette solution contained (in mM): 115 CsF, 10 CsCl, 10 HEPES and 10 BAPTA (280–290 mOsm), pH adjusted to 7.2 using CsOH ([Grand et al., 2018]). When recording in hippocampal neurons, the extracellular solution contained (in mM): 140 NaCl, 5 KCl, 1 CaCl2, 1.25 MgCl2, 10 glucose, and 10 HEPES, and the pH was adjusted to 7.4 using NaOH, and the pipette solution contained (in mM): 140 KCl, 1 MgCl2, 10 EGTA, and 10 HEPES, and the pH was adjusted to 7.2 using KOH ([Xie et al., 2020]). Drug-containing solutions were applied through an RSC-200 Rapid Solution Changer with a 9-tube head (BioLogic Co., France), in which the cell is positioned close to the output of a capillary. The solution, containing either one drug or a combination of different drugs, to be assayed flows out of the capillary at a moderate flow rate by gravity. The lifted cell, exposed to this stream, rapidly equilibrates in the perfusion solution. Whole-cell patch-clamp recordings in heterologous cells and hippocampal neurons were performed at a holding potential of −60 mV. Currents were sampled at 10 kHz and low pass filtered at 2.9 kHz. To record the native GluN1/GluN3 receptor-mediated currents, the extracellular solution was supplemented with 10 μM bicuculline (Sigma-Aldrich), 2 μM NBQX (Topscience), 100 μM D-APV (MCE), and 50 μM strychnine (UHN Shanghai) to block γ-aminobutyric acid type A (GABAA), α-amino-3-hydroxy-5-methylisoxazole-4-propionate (AMPA), GluN1/GluN2 NMDA and glycine receptors, respectively. To record the native GluN2-NMDARs-mediated currents, 10 μM bicuculline and 2 μM NBQX were added into the extracellular solution to block GABAA receptors and AMPA receptors, respectively ([Grand et al., 2018]; [Otsu et al., 2019]; [Zhu et al., 2020]).
Patch-clamp data were processed using Clampfit 10.4 (Molecular Device, Sunnyvale, CA, United States) and analyzed with GraphPad Prism 5.0 (GraphPad Software, San Diego, CA, United States). […]

GluN1/GluN3 receptors = molecular target: GluN1/GluN3 receptors; parameters: method as in Zhu et al., 2020; conditions: ref Zhu et al., 2020; cited from earlier work
GluN3A = conditions: ref Yao and Mayer, 2006; cited from earlier work

T1 sequence (Q9R1M7 24-1135, other chains not shown): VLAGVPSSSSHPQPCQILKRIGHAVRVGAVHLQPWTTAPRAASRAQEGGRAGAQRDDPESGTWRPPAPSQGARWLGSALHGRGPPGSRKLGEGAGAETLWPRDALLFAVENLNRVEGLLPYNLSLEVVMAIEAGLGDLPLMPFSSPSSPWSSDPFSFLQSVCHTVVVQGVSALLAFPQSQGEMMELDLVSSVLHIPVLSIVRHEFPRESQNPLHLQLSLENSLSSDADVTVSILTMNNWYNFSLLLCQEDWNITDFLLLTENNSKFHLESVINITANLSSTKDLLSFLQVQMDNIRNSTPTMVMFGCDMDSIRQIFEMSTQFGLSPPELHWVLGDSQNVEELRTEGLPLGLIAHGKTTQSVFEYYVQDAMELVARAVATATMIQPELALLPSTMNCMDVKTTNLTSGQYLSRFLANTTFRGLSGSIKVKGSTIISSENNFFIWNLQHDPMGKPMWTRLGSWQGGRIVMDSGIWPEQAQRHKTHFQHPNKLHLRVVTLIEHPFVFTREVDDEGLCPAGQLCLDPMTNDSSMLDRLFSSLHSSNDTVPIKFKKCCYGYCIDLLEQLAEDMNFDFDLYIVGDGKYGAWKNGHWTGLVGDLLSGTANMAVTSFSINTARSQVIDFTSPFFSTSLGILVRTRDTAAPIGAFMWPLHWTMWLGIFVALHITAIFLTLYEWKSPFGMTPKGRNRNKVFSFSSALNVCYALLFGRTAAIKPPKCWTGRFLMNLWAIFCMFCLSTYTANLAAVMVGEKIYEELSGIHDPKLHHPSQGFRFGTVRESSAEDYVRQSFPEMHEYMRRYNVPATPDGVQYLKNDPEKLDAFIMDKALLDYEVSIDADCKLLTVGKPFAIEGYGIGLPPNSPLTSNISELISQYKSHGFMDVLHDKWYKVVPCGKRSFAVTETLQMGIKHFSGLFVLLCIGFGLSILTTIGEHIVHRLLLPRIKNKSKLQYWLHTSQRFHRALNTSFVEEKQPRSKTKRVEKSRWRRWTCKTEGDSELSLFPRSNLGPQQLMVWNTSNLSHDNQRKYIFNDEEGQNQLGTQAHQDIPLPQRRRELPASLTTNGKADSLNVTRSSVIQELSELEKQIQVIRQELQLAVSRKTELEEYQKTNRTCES

| Structure (SMILES) | remaining activity at 3 µM (GluN1/GluN3A receptors [2]) [%] | other results |
| --- | --- | --- |
| O=C(O)c1cc(=O)c2c(Cl)cc(Cl)cc2[nH]1 [5,7-DCKA] | – | identification in HTS (GluN1/GluN3A receptors [1]): identified in both the primary screening and secondary screening |
| CC(C)c1cc(C(C)C)c(CC(=O)NS(=O)(=O)Oc2c(C(C)C)cccc2C(C)C)c(C(C)C)c1 [Avasimibe] | 86 ± 3 | – |
| N[C@H](CO)C(=O)O [D-serine] | – | identification in HTS (GluN1/GluN3A receptors [1]): identified in both the primary screening and secondary screening |
| COc1ccc(OCC(c2ccc(OC)cc2)N2Cc3ccccc3C2=O)cc1 (stereo not shown) [EU1180-438] | – | IC50 (GluN1/GluN3 receptors): 1800 ± 300 nM |
| CNc1nc(-c2ccc3c(N)n[nH]c3c2)cc(N2C[C@@H](C(=O)NC3CCCCC3)CC[C@H]2C)n1 [GSK2334470] | 84 ± 4 | – |
| COc1cc(OC)c(C=C2C(O)=Nc3ccccc32)c(OC)c1 [IC261] | 88 ± 1 | – |
| COc1ccc(S(=O)(=O)N(CCO)c2ccccc2CN(C)C/C=C/c2ccc(Cl)cc2)cc1.O=P(O)(O)O [KN93 Phosphate] | – | I drug/I control (GluN1/GluN3A receptors [2]): 0.90 ± 0.02 |
| O=c1[nH]c2cc(Cl)ccc2c(O)c1-c1cccc(Oc2ccccc2)c1 [L-701324] | – | identification in HTS (GluN1/GluN3A receptors [1]): identified in both the primary screening and secondary screening |
| NC(=O)N1CCC(CC(=O)N2CCC([C@H]3c4ncc(Br)cc4CCc4cc(Cl)cc(Br)c43)CC2)CC1 [Lonafarnib] | 98 ± 2 | – |
| CCCCCCCCCCCCCCCCn1cc[n+](Cc2ccccc2)c1C.[I-] [NH125] | – | I drug/I control (GluN1/GluN3A receptors [2]): 0.84 ± 0.03 |
| O=C(O)c1cc(O)c2c(c1)C(=O)c1cccc(O)c1C2=O [Rhein] | 80 ± 4 | – |
| Cc1ccc(CN(Cc2ccc(-c3ccccc3S(=O)(=O)NC#N)cc2)C(=O)c2ccccc2Cl)cc1 [S0859, 2-chloro-N-[2'-(N-cyanosulfamoyl)biphenyl-4-ylmethyl]-N-(4-methylbenzyl) benzamide] | 48 ± 2 | – |
| Cc1[nH]c(/C=C2\C(=O)Nc3ccccc32)c(C)c1CCC(=O)O [SU6668] | 89 ± 4 | – |
| CC(C)(O)CC(=O)NCCn1ccc2ncnc(Nc3ccc(Oc4cccc(C(F)(F)F)c4)c(Cl)c3)c21 [TAK285] | 92 ± 6 | – |
| Nc1n[n+]([O-])c2ccccc2[n+]1[O-] [Tirapazamine] | 103 ± 5 | – |
| Oc1ccc(-c2nc3cc(O)cc(Br)c3o2)cc1 [WAY200070, 7-bromo-2-(4-hydroxyphenyl) benzoxazol-5-ol] | 53 ± 2 | – |
| CCOC(=O)Nc1ccc(NCc2ccc(F)cc2)nc1N [flupirtine maleate] | – | identification in HTS (GluN1/GluN3A receptors [1]): identified in both the primary screening and secondary screening |
| NCC(=O)O [glycine] | – | higher affinity for GluN3A than for GluN1 (GluN3A): 650 fold |
| Nc1nc2ccc(OC(F)(F)F)cc2s1 [riluzole] | – | identification in HTS (GluN1/GluN3A receptors [1]): identified in both the primary screening and secondary screening |
